Assay results as given in PubChem BioAssay (NCI).
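Cells were grown in 96-well plates and exposed to each compound for 48 hours at five concentrations; endpoints were interpolated linearly between bracketing concentrations, or set to the highest concentration if not reached. Definition used: TGI = concentration required for complete inhibition of growth.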

Tests used:
Assay in all cases: NCI tumour cell line growth inhibition, 48 h
[1] = test system: HT29 colon
[2] = test system: HS 578T breast
[3] = test system: DU-145 prostate
[4] = test system: NCI-H23 lung
[5] = test system: RXF 393 renal
[6] = test system: NCI-H460 lung
[7] = test system: OVCAR-4 ovarian
[8] = test system: K-562 leukemia
[9] = test system: ACHN renal
[10] = test system: OVCAR-8 ovarian
[11] = test system: CAKI-1 renal
[12] = test system: NCI/ADR-RES ovarian
[13] = test system: UACC-62 melanoma
[14] = test system: HCT-15 colon
[15] = test system: A498 renal
[16] = test system: IGROV1 ovarian
[17] = test system: RPMI-8226 leukemia
[18] = test system: U251 CNS
[19] = test system: NCI-H522 lung
[20] = test system: SF-539 CNS
[21] = test system: PC-3 prostate
[22] = test system: NCI-H226 lung
[23] = test system: MOLT-4 leukemia
[24] = test system: SK-MEL-28 melanoma
[25] = test system: MDA-N
[26] = test system: UO-31 renal
[27] = test system: LOX IMVI melanoma
[28] = test system: HCT-116 colon
[29] = test system: SN12C renal
[30] = test system: M14 melanoma
[31] = test system: 786-0 renal
[32] = test system: SF-295 CNS
[33] = test system: SNB-19 CNS
[34] = test system: SR leukemia
[35] = test system: SF-268 CNS
[36] = test system: EKVX NSCLC
[37] = test system: HOP-92 NSCLC
[38] = test system: SK-MEL-2 melanoma
[39] = test system: MALME-3M melanoma
[40] = test system: BT-549 breast
[41] = test system: HL-60(TB) leukemia
[42] = test system: MDA-MB-435
[43] = test system: HOP-62 NSCLC
[44] = test system: SW-620 colon
[45] = test system: T-47D breast
[46] = test system: MDA-MB-231 breast
[47] = test system: SNB-75 CNS
[48] = test system: MCF7 breast
[49] = test system: A549 NSCLC
[50] = test system: UACC-257 melanoma
[51] = test system: CCRF-CEM leukemia
[52] = test system: KM12 colon
[53] = test system: OVCAR-5 ovarian
[54] = test system: SK-OV-3 ovarian
[55] = test system: COLO 205 colon
[56] = test system: OVCAR-3 ovarian
[57] = test system: KM20L2 colon
[58] = test system: HCC-2998 colon
[59] = test system: XF 498 CNS
[60] = test system: HOP-18 NSCLC
[61] = test system: DLD-1 colon
[62] = test system: M19-MEL melanoma
[63] = test system: TK-10 renal
[64] = test system: SK-MEL-5 melanoma
[65] = test system: LXFL 529 NSCLC

Measured: TGI

CSC(=N/C=C/c1ccccc1)SC
not listed: [57] | [58] | [59] | [60] | [61] | [62] | [63] | [64] | [65]
> 100 µM: all other assays above

NS(=O)(=O)c1ccccc1C(=O)N/N=C(\c1nc2ccc([N+](=O)[O-])cc2[nH]c1=O)C(O)c1ccc([N+](=O)[O-])cc1 (stereo unspecified)
59.2 µM: [19]
not listed: [2] | [12] | [21] | [25] | [40] | [42] | [43] | [45] | [46] | [48]
> 100 µM: all other assays above
